US20100317647A1 (priority 2009, published 2010)

Target: human Cat S (Homo sapiens, UniProt P25774)
Assay: Cathepsin enzyme inhibition assay (fluorogenic peptide substrate cleavage)
Assay type: biochemical
Settings: human Cat S 1 nM; substrate Z-Val-Val-Arg-AMC 20 μM; pH 6.5; fluorescence over 20 minutes
Outline: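 IC50 values derived from fluorescence increase (ex 360 nm, em 465 nm) monitored for 20 minutes after substrate addition. Enzyme held at 1 nM with 20 μM Z-Val-Val-Arg-AMC, in pH 6.5 potassium phosphate buffer containing DTT, EDTA and Triton X-100.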

Chain of human Cat S (P25774 115-331): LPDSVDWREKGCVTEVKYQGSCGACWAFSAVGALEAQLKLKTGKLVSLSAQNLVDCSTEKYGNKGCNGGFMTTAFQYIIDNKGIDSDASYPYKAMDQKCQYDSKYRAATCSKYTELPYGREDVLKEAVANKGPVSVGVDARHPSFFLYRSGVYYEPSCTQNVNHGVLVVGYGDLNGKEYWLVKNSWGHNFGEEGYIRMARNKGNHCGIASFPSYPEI

Row | Structure (SMILES) | IC50 [nM]
1 | CC(C)(C)N1CCN(c2ccc(S(=O)(=O)[C@@H]3C[C@@H](C(=O)NC4(C#N)CC4)[C@H](C(=O)N4CC(F)(F)C4)C3)c(C(F)(F)F)c2)CC1 [Example 130, (1R,2R,4R)-4-[4-(4-tert-Butyl-piperazin-1-yl)-2-trifluoromethyl-benzenesulfonyl]-2-(3,3-difluoro-azetidine-1-carbonyl)-cyclopentanecarboxylic acid (1-cyano-cyclopropyl)-amide] | 0.4
2 | N#CC1(NC(=O)C2CC(S(=O)(=O)c3ccc(N4CCC(F)(F)C4)cc3C(F)(F)F)CC2C(=O)N2CC(F)(F)C2)CC1 (stereo not shown) [Example 132, 2-(3,3-Difluoro-azetidine-1-carbonyl)-4-[4-(3,3-difluoro-pyrrolidin-1-yl)-2-trifluoromethyl-benzenesulfonyl]-cyclopentanecarboxylic acid (1-cyano-cyclopropyl)-amide] | 1.2
3 | N#CC1(NC(=O)[C@@H]2C[C@@H](S(=O)(=O)c3ccc(N4CC5(COC5)C4)cc3C(F)(F)F)C[C@H]2C(=O)N2CC(F)(F)C2)CC1 [Example 133, (1R,2R,4R)-2-(3,3-Difluoro-azetidine-1-carbonyl)-4-[4-(2-oxa-6-aza-spiro[3.3]hept-6-yl)-2-trifluoromethyl-benzenesulfonyl]-cyclopentanecarboxylic acid (1-cyano-cyclopropyl)-amide] | 0.5
4 | N#CC1(NC(=O)[C@@H]2C[C@@H](S(=O)(=O)c3ccc(OCC(F)(F)F)cc3Cl)C[C@H]2C(=O)N2CC(F)(F)C2)CC1 [Example 134, (1R,2R,4R)-4-[2-Chloro-4-(2,2,2-trifluoro-ethoxy)-benzenesulfonyl]-2-(3,3-difluoro-azetidine-1-carbonyl)-cyclopentanecarboxylic acid (1-cyano-cyclopropyl)-amide] | 1.4
5 | CO[C@@H]1C[C@H](S(=O)(=O)c2ccc(-c3cnn(C)c3)cc2C(F)(F)F)C[C@H]1C(=O)NC1(C#N)CC1 [Example 138, (1R,2R,4R)-2-Methoxy-4-[4-(1-methyl-1H-pyrazol-4-yl)-2-trifluoromethyl-benzenesulfonyl]-cyclopentanecarboxylic acid (1-cyano-cyclopropyl)-amide] | 0.4
6 | CO[C@@H]1C[C@H](S(=O)(=O)c2ccc(-c3ccnc(C)c3)cc2C(F)(F)F)C[C@H]1C(=O)NC1(C#N)CC1 [Example 139, (1R,2R,4R)-2-Methoxy-4-[4-(2-methyl-pyridin-4-yl)-2-trifluoromethyl-benzenesulfonyl]-cyclopentanecarboxylic acid (1-cyano-cyclopropyl)-amide] | 0.3
7 | CCN1CCN(c2ccc(S(=O)(=O)[C@H]3C[C@@H](COc4ccc(F)cc4)[C@H](C(=O)NCC#N)C3)c(Cl)c2)CC1 [Example 147, (1R,2R,4S)-4-[2-Chloro-4-(4-ethyl-piperazin-1-yl)-benzenesulfonyl]-2-(4-fluoro-phenoxymethyl)-cyclopentanecarboxylic acid cyanomethyl-amide] | 0.227
8 | N#CC1(NC(=O)[C@@H]2C[C@H](S(=O)(=O)c3ccccc3Cl)C[C@H]2CN2CCC(c3ccc(F)cc3)CC2)CC1 [Example 148, (1R,2R,4R)-4-(2-Chloro-benzenesulfonyl)-2-[4-(4-fluoro-phenyl)-piperidin-1-ylmethyl]-cyclopentanecarboxylic acid (1-cyano-cyclopropyl)-amide] | 515
9 | N#CC1(NC(=O)[C@@H]2C[C@@H](S(=O)(=O)c3ccc(Br)cc3C(F)(F)F)C[C@H]2COC=O)CC1 [Example 152, Formic acid (1R,2R,4S)-4-(4-bromo-2-trifluoromethyl-benzenesulfonyl)-2-(1-cyano-cyclopropylcarbamoyl)-cyclopentylmethyl ester] | 4.2
10 | COc1ccc(COC[C@@H]2C[C@H](S(=O)(=O)c3ccc(F)cc3Cl)C[C@H]2C(=O)NC2(C#N)CC2)cc1 [Example 153, (1R,2R,4S)-4-(2-Chloro-4-fluoro-benzenesulfonyl)-2-(4-methoxy-benzyloxymethyl)-cyclopentanecarboxylic acid (1-cyano-cyclopropyl)-amide] | 25.5
11 | N#CC1(NC(=O)[C@@H]2C[C@@H](S(=O)(=O)c3ccc(F)cc3Cl)C[C@H]2CF)CC1 [Example 157, (1R,2R,4R)-4-(2-Chloro-4-fluoro-benzenesulfonyl)-2-fluoromethyl-cyclopentanecarboxylic acid (1-cyano-cyclopropyl)-amide] | 61.5
12 | CN1CCN(c2ccc(S(=O)(=O)[C@@H]3C[C@@H](C(=O)NC4(C#N)CC4)[C@H](C(=O)N4CC(F)(F)C4)C3)c(Cl)c2)CC1 [Example 158, (1R,2R,4R)-4-[2-Chloro-4-(4-methyl-piperazin-1-yl)-benzenesulfonyl]-2-(3,3-difluoro-azetidine-1-carbonyl)-cyclopentanecarboxylic acid (1-cyano-cyclopropyl)-amide] | 0.63
13 | N#CC1(NC(=O)[C@@H]2C[C@@H](S(=O)(=O)c3ccc(N4CCN(C5CC5)CC4)cc3Cl)C[C@H]2C(=O)N2CC(F)(F)C2)CC1 [Example 159, (1R,2R,4R)-4-[2-Chloro-4-(4-cyclopropyl-piperazin-1-yl)-benzenesulfonyl]-2-(3,3-difluoro-azetidine-1-carbonyl)-cyclopentanecarboxylic acid (1-cyano-cyclopropyl)-amide] | 0.385
14 | N#CC1(NC(=O)[C@@H]2C[C@@H](S(=O)(=O)c3ccc(F)cc3Cl)C[C@H]2COc2ccc(Cl)nc2)CC1 [Example 162, (1R,2R,4S)-4-(2-Chloro-4-fluoro-benzenesulfonyl)-2-(6-chloro-pyridin-3-yloxymethyl)-cyclopentanecarboxylic acid (1-cyano-cyclopropyl)-amide] | 14.7
15 | CC(=O)N1CCN(c2ccc(S(=O)(=O)[C@@H]3C[C@@H](C(=O)NC4(C#N)CC4)[C@H](C(=O)N4CC(F)(F)C4)C3)c(Cl)c2)CC1 [Example 166, (1R,2R,4R)-4-[4-(4-Acetyl-piperazin-1-yl)-2-chloro-benzenesulfonyl]-2-(3,3-difluoro-azetidine-1-carbonyl)-cyclopentanecarboxylic acid (1-cyano-cyclopropyl)-amide] | 0.6
16 | N#CC1(NC(=O)[C@@H]2C[C@@H](S(=O)(=O)c3ccc(-n4cccn4)cc3Cl)C[C@H]2C(=O)N2CC(F)(F)C2)CC1 [Example 167, (1R,2R,4R)-4-(2-Chloro-4-pyrazol-1-yl-benzenesulfonyl)-2-(3,3-difluoro-azetidine-1-carbonyl)-cyclopentanecarboxylic acid (1-cyano-cyclopropyl)-amide] | 1.47

Continued by falling IC50, values first:

Row | IC50 [nM] | Structure (SMILES)
17 | 107 | N#CC1(NC(=O)[C@@H]2C[C@@H](S(=O)(=O)c3ccc(F)cc3Cl)C[C@H]2CO)CC1 [Example 155, (1R,2R,4S)-4-(2-Chloro-4-fluoro-benzenesulfonyl)-2-hydroxymethyl-cyclopentanecarboxylic acid (1-cyano-cyclopropyl)-amide]
18 | 31.5 | CC(C)OC[C@@H]1C[C@H](S(=O)(=O)c2ccc(F)cc2Cl)C[C@H]1C(=O)NC1(C#N)CC1 [Example 156, (1R,2R,4S)-4-(2-Chloro-4-fluoro-benzenesulfonyl)-2-isopropoxymethyl-cyclopentanecarboxylic acid (1-cyano-cyclopropyl)-amide]
19 | 11.1 | N#CC1(NC(=O)[C@@H]2C[C@@H](S(=O)(=O)c3ccc(F)cc3Cl)C[C@H]2COc2ccncc2)CC1 [Example 163, (1R,2R,4S)-4-(2-Chloro-4-fluoro-benzenesulfonyl)-2-(pyridin-4-yloxymethyl)-cyclopentanecarboxylic acid (1-cyano-cyclopropyl)-amide]
20 | 6.83 | N#CC1(NC(=O)[C@@H]2C[C@@H](S(=O)(=O)c3ccc(F)cc3Cl)C[C@H]2COc2cccnc2)CC1 [Example 165, (1R,2R,4S)-4-(2-Chloro-4-fluoro-benzenesulfonyl)-2-(pyridin-3-yloxymethyl)-cyclopentanecarboxylic acid (1-cyano-cyclopropyl)-amide]
21 | 3 | N#CC1(NC(=O)[C@@H]2C[C@@H](S(=O)(=O)c3ccc(F)cc3Cl)C[C@H]2COc2ccccc2)CC1 [Example 164, (1R,2R,4S)-4-(2-Chloro-4-fluoro-benzenesulfonyl)-2-phenoxymethyl-cyclopentanecarboxylic acid (1-cyano-cyclopropyl)-amide]
22 | 2.4 | C[C@H](Oc1ccc(S(=O)(=O)[C@@H]2C[C@@H](C(=O)NC3(C#N)CC3)[C@H](C(=O)N3CC(F)(F)C3)C2)c(Cl)c1)C(F)(F)F [Example 135, (1R,2R,4R)-4-[2-Chloro-4-((S)-2,2,2-trifluoro-1-methyl-ethoxy)-benzenesulfonyl]-2-(3,3-difluoro-azetidine-1-carbonyl)-cyclopentanecarboxylic acid (1-cyano-cyclopropyl)-amide]
23 | 1.3 | N#CC1(NC(=O)[C@@H]2C[C@@H](S(=O)(=O)c3ccc(N4CC(F)(F)C4)cc3Cl)C[C@H]2C(=O)N2CC(F)(F)C2)CC1 [Example 136, (1R,2R,4R)-4-[2-Chloro-4-(3,3-difluoro-azetidin-1-yl)-benzenesulfonyl]-2-(3,3-difluoro-azetidine-1-carbonyl)-cyclopentanecarboxylic acid (1-cyano-cyclopropyl)-amide]
24 | 1.2 | CC(=O)N1CCN(c2ccc(S(=O)(=O)C3CC(C(=O)NC4(C#N)CC4)C(C(=O)N4CC(F)(F)C4)C3)c(C(F)(F)F)c2)CC1 (stereo not shown) [Example 131, 4-[4-(4-Acetyl-piperazin-1-yl)-2-trifluoromethyl-benzenesulfonyl]-2-(3,3-difluoro-azetidine-1-carbonyl)-cyclopentanecarboxylic acid (1-cyano-cyclopropyl)-amide]
25 | 0.165 | CC(C)(C)N1CCN(c2ccc(S(=O)(=O)[C@@H]3C[C@@H](C(=O)NC4(C#N)CC4)[C@H](C(=O)N4CC(F)(F)C4)C3)c(Cl)c2)CC1 [Example 160, (1R,2R,4R)-4-[4-(4-tert-Butyl-piperazin-1-yl)-2-chloro-benzenesulfonyl]-2-(3,3-difluoro-azetidine-1-carbonyl)-cyclopentanecarboxylic acid (1-cyano-cyclopropyl)-amide]
